Laboratory results from patent US20110280913A1, “Methods and Compositions for Delivering Therapeutic Agents in the Treatment of B-Cell Related Disorders” (THE OHIO STATE UNIVERSITY, priority 2008, published 2011).

Columns and labels:
[1] = test system: CLL cells; experiment: Cytotoxicity in presence of cross-linking (annexin V/PI); format: cell-based, human; settings: for cell death (antibody-mediated apoptosis in the presence of cross-linking): rituximab 10 μg/mL + 50 μg/mL anti-Fc
Experimental: Cells (10^6 cells/mL) were treated with commercially purchased alemtuzumab (anti-CD52; Ilex Pharmaceuticals, San Antonio, Tex.), rituximab (anti-CD20; Genentech, San Francisco, Calif.), or trastuzumab (anti-HER2; Genentech) at a concentration of 10 μg/mL. Goat antihuman IgG cross-linker (Fc specific; Jackson ImmunoResearch Laboratories, West Grove, Pa.) was added to the cell suspension 5 minutes after adding the primary antibodies at a concentration of 50 μg/mL.
In addition, samples with no treatment or crosslinker alone were collected at matched time points. Apoptosis of cells at 24 and 48 hours after treatment was measured by annexin V-fluorescein isothiocyanate/propidium iodide (PI) flow cytometry analysis according to the supplier's instructions (BD Biosciences).
Cytotoxicity results were expressed as percentage of total positive cells over untreated control [% positive cells=(% annexin^+ and/or PI^+ cells of treatment group)−(% annexin^+ and/or PI^+ cells of untreated control)].

[2] = test system: CLL cells; experiment: ADCC, 4-hour 51Cr-release assay; format: cell-based, human; settings: using alemtuzumab, data not shown
Experimental: For ADCC experiments, CD56^+ and CD19^+ cells were negatively purified from whole blood obtained from either healthy volunteers or CLL subjects by magnetic-activated cell sorting according to the manufacturer's recommendations (MiniMACS; Miltenyi Biotec, Auburn, Calif.). The purity of enriched populations was always greater than 95% of the total yield as detected by CD19 and CD3 staining.
ADCC activity was determined by standard 4-hour ^51Cr-release assay. ^51Cr-labeled target cells (10^5 CLL cells/mL) were incubated with media alone or in the presence of various antibodies (10 μg/mL) at 37° C. for 30 minutes. Unbound antibody was washed off and the cells plated at 10^4 cells/well. Effector cells (natural killer [NK] cells from healthy donors or CLL subjects) were then added to the plates at indicated effector-to-target (E:T) ratios. After a 4-hour incubation, supernatants were removed and measured using a gamma counter. The percentage of specific cell lysis was determined by the equation: % lysis=100×(ER−SR)/(MR−SR), where ER, SR, and MR represent experimental, spontaneous, and maximum release, respectively. Data were normalized to the untreated control.

rituximab: anti-CD20 antibody; Genentech
cell death (antibody-mediated apoptosis in the presence of cross-linking) ([1]; lenalidomide-treated CLL cells (48 hours), N=10, P<0.017): 11% ±8% | cell death (antibody-mediated apoptosis in the presence of cross-linking) ([1]; vehicle-treated CLL cells (48 hours), N=10): 25% ±11%

alemtuzumab: anti-CD52 antibody; Ilex Pharmaceuticals
change in alemtuzumab-mediated apoptosis with lenalidomide treatment ([1]; lenalidomide 48 hours, cross-linking, same conditions): No significant change | change in ADCC, lenalidomide versus untreated cells [2]: no significant change
